# Values of other authors in patent US12150970B2, “Composition for treatment of topical dermatological bacterial skin conditions” (ALPHYN BIOLOGICS, INC., priority 2021, dated 2024).
# Test system: cells
# Conditions: compounds evaluated by Chen
row,Compound,effect on cell proliferation / healing (in words)
1,epicatechin,little effect
2,epigallocatechin,slightly stimulating to cell proliferation
3,"COc1ccc2c(=O)oc3c(OC)cc(CCN(C)C)c4c(=O)oc1c2c34 [Taspine, taspine]",little healing effects
4,COc1ccc([C@H]2Oc3c(OC)cc(CCCO)cc3[C@@H]2CO)cc1OC [dimethylcedrusin],little healing effects
5,"Oc1cc(O)c2c(c1)O[C@H](c1cc(O)c(O)c(O)c1)[C@@H](O)C2 [Gallocatechin, gallocatechin]",slightly stimulating to cell proliferation
6,"Oc1cc(O)c2c(c1)O[C@H](c1ccc(O)c(O)c1)[C@@H](O)C2 [Catechin, catechin]",little effect
